For this data set the following is noted: Crystal; visual observation.

Numbers after ± are expanded uncertainties.

Turning to `CCOC(=O)N1CCC(=C2c3ccc(Cl)cc3CCc3cccnc32)CC1` [claritine], the Normal melting temperature is 134 ± 4 °C.

Source of the values: the NIST ThermoML archive (doi:10.1016/j.fluid.2018.05.018).
